From patent publication US8097440B1, “Engineered microorganisms capable of producing target compounds under anaerobic conditions” (Gevo, Inc., priority 2008, dated 2012)
Positions count from the first letter of the chain named.

Experiments:
Type in all cases: biochemical
[1] = target: T1, E. coli KARI Ec_IlvC variant Ec_IlvC^Q110A-his6 (Q110A), SEQ ID NO: 21 (Escherichia coli, UniProt P05793, Q110A); experiment: KARI cuvette assay, purified Ec_IlvC^Q110A-his6; conditions: relative to Ec_IlvC^his6 with NADPH
T1 sequence (P05793 with tags, fused parts or gaps Q110A): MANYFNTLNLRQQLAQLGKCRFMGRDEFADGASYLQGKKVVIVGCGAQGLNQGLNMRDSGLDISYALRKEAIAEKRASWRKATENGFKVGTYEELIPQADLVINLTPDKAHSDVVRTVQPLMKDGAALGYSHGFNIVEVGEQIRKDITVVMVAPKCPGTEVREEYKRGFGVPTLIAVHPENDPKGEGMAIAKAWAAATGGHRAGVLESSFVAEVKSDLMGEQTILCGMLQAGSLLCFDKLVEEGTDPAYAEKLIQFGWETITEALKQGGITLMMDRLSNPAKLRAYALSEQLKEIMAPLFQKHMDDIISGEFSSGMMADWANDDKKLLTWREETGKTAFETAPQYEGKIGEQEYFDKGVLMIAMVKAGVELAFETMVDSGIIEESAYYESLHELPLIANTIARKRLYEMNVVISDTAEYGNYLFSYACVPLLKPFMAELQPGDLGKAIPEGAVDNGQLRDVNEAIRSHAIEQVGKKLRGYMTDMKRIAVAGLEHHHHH
Method: (§1) KARI cuvette assay: KARI activity was assayed kinetically by monitoring the decrease in NAD(P)H concentration by measuring the absorbance at 340 nm. A reaction buffer was prepared containing 250 mM potassium phosphate pH 7, 1 mM DTT and 10 mM MgCl2. Cell pellets were resuspended (0.25 g wet weight/mL buffer) in 250 mM potassium phosphate (KPi) buffer containing 1 mM DTT and 10 mM MgCl2. The resuspended cells were lysed by sonication for 1 min with a 50% duty cycle and pelleted at 11000×g and 4° C. for 15 min. A reaction mixture consisting of 910 μl reaction buffer, 50 μl acetolactate, and 20 μl lysate was prepared in a cuvette. The reaction was initiated by addition of 20 μL of 10 mM NAD(P)H. A substrate free control was conducted using reaction buffer without the addition of acetolactate.
(§2) Purification of KARI: Cell pellets used for purification were resuspended in purification buffer A (20 mM Tris, 20 mM imidazol, 100 mM NaCl, 10 mM MgCl2, pH 7.4). KARI was purified by IMAC (Immobilized metal affinity chromatography) over a 1 ml Histrap High Performance (histrap HP) column pre-charged with Nickel (GE Healthcare) using an Akta FPLC system (GE Healthcare). […]

[2] = target: T2, E. coli KARI Ec_IlvC variant Ec_IlvC^B8-his6 (Q110V, S78D), SEQ ID NO: 27 (Escherichia coli, UniProt P05793, Q110V/S78D); experiment: KARI cuvette assay, purified Ec_IlvC^B8-his6
T2 sequence (P05793 with tags, fused parts or gaps S78D/Q110V): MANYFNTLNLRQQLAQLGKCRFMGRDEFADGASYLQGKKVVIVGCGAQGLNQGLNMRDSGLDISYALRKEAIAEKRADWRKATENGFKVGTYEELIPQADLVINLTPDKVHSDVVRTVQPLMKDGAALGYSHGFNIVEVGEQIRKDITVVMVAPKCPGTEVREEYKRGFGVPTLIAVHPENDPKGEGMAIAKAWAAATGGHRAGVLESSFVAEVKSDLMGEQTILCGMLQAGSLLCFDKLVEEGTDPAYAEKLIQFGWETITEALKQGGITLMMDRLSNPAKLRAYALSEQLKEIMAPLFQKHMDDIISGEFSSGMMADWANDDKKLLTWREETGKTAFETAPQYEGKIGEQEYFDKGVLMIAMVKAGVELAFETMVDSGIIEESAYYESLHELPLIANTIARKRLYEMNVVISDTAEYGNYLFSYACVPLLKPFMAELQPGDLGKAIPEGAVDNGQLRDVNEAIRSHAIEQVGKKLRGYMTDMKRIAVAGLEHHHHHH
Method: as §1, §2

[3] = target: T3, E. coli KARI Ec_IlvC variant Ec_IlvC^S78D-his6 (S78D), SEQ ID NO: 17 (Escherichia coli, UniProt P05793, S78D); experiment: KARI cuvette assay, purified Ec_IlvC^S78D-his6; conditions: relative to Ec_IlvC^his6 with NADPH
T3 sequence (P05793 with tags, fused parts or gaps S78D): T2 sequence (P05793 with tags, fused parts or gaps S78D/Q110V) with V110Q
Method: as §1, §2

## NC(=O)C1=CN([C@@H]2O[C@H](COP(=O)(O)OP(=O)(O)OC[C@H]3O[C@@H](n4cnc5c(N)ncnc54)[C@H](O)[C@@H]3O)[C@@H](O)[C@H]2O)C=CC1 [NADH, nicotinamide adenine dinucleotide]
[1]
  (kcat/KM with NADH)/(kcat/KM of Ec_IlvC^his6 with NADPH): 13%
[2]; purified, acetolactate as substrate
  kcat/KM: 31775 M⁻¹ s⁻¹
[2]; relative to Ec_IlvC^his6 with NADPH
  (kcat/KM with NADH)/(kcat/KM of Ec_IlvC^his6 with NADPH): 36%
[3]
  (kcat/KM with NADH)/(kcat/KM of Ec_IlvC^his6 with NADPH): 32%
